# From publication PMC3731160 (ACS medicinal chemistry letters, 2013)
# Where two headings read alike, the source gives them in different places.
# Columns and labels:
# EP2 receptor = EP2 receptor (Homo sapiens, UniProt P43116); experiment: PGE2-induced cAMP accumulation; assay type: cell-based; conditions: competitive antagonism of EP2
# [1] = Aqueous solubility in PBS buffer by nephelometry; conditions: pH 7
# [2] = Metabolic stability in pooled mouse liver microsomes; conditions: 1 and 10 µM
# EP4 receptor = EP4 receptor (Homo sapiens, UniProt P35408); conditions: for inhibition of EP4 receptor: up to 40 µM, agonist saturated conditions
# β2-Adrenergic receptors = experiment: β2-adrenergic receptor counter assay; conditions: up to 40 µM, agonist saturated conditions
# [3] = Pharmacokinetics and brain permeability in female C57Bl/6 mice; conditions: 1h and 2h
# IP receptor = IP receptor (Homo sapiens, UniProt P43119); experiment: cell-based
# [4] = Metabolic stability in pooled human liver microsomes; conditions: 1 and 10 µM
# P388D1 macrophages = experiment: Butaprost-induced mRNA expression of inflammatory markers in P388D1 macrophages; assay type: cell-based
# Sequence of EP4 receptor (P35408 whole entry): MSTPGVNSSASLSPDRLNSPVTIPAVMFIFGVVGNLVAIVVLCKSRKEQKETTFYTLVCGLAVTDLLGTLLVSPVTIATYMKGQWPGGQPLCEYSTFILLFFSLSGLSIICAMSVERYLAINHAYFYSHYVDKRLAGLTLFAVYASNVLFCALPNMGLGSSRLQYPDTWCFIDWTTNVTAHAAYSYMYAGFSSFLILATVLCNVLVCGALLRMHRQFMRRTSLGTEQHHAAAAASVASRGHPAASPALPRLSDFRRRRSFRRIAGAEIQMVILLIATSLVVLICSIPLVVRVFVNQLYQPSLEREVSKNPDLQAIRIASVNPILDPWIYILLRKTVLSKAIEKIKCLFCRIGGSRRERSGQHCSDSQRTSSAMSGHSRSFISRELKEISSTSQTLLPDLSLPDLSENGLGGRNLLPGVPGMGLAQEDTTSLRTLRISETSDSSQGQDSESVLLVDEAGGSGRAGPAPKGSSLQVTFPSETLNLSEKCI
# Sequence of EP2 receptor (P43116 whole entry): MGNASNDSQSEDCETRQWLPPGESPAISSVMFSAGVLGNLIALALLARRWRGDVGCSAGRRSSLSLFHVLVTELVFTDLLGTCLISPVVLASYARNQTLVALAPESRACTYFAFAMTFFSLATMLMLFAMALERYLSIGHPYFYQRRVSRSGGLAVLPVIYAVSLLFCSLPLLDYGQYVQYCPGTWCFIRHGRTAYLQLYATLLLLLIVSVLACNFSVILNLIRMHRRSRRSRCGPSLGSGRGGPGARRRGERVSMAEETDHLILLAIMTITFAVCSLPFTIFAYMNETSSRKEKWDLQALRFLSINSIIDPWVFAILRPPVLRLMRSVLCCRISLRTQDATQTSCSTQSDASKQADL
# Sequence of IP receptor (P43119 whole entry): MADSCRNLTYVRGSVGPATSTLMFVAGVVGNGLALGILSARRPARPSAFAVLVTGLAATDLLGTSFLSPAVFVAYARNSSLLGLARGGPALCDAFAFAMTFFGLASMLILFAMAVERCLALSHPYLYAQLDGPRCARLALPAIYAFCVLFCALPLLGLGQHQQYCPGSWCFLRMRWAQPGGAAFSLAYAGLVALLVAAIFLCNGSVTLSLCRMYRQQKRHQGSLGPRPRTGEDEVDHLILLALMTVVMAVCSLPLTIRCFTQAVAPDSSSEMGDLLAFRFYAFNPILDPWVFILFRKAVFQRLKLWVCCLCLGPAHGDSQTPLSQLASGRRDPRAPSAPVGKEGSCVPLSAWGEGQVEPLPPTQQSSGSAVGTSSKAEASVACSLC
structure (smiles),measurement,setting,value
"CCc1nnc(NS(=O)(=O)c2ccc(NC(=S)NC(=O)/C=C/c3ccc(F)cc3)cc2)s1 [TG6-129, (E)-N-((4-(N-(5-ethyl-1,3,4-thiadiazol-2-yl)sulfamoyl)phenyl)carbamothioyl)-3-(4-fluorophenyl)acrylamide]",Schild regression slope,EP2 receptor,1.2
same,solubility,[1],145 µM
same,compound remaining at 60 minutes,[2],40–60%
same,inhibition of EP4 receptor,EP4 receptor,without affecting
same,inhibition of EP4 receptor,EP4 receptor; listed as 1,no inhibition
same,inhibition of β2-Adrenergic receptor,β2-Adrenergic receptors,without affecting
same,inhibition of β2-Adrenergic receptor,β2-Adrenergic receptors; listed as 1,no inhibition
same,compound found in brain samples,[3]; 5mg/kg ip,no detectable amount
same,compound found in brain samples,[3]; 10 mg/kg oral gavage,no detectable amount
same,Kb,IP receptor,199 nM
same,compound remaining at 60 minutes,[4],40–60%
COc1cc(NS(=O)(=O)c2ccc(NC(=S)NC(=O)/C=C/c3ccc(F)cc3)cc2)ncn1 [compound 6],compound remaining at 60 minutes,[2],40–60%
same,compound remaining at 60 minutes,[4],40–60%
COc1cc(NS(=O)(=O)c2ccc(NC(=S)NC(=O)c3sc4cc(F)ccc4c3Cl)cc2)nc(OC)n1 [compound 8],KB (µM) EP4,"EP4 receptor; Schild KB, average of 2–5 independent experiments",submicromolar
CCCC1([C@H](O)C/C=C/[C@H]2[C@H](O)CC(=O)[C@@H]2CCCCCCC(=O)OC)CCC1 [butaprost],"mRNA expression of COX-2, IL-1β, IL-6, IL-12 (p40), IL-17, IL-23, TNF-α","P388D1 macrophages; butaprost 10 µM, 2 h",significantly elevated
same,expression of EP2 receptor mRNA,"P388D1 macrophages; butaprost, 2h",only a slight increase
